Patent US20240158446A1, “CYCLIC COMPOUND HAVING SELECTIVE INHIBITORY ACTION ON KRAS OVER HRAS AND NRAS” (CHUGAI SEIYAKU KABUSHIKI KAISHA, priority 2021, published 2024)

Columns and labels:
[1] = target: GDP-bound NRAS wild-type protein (Homo sapiens, UniProt P01111); assay: Binding to NRAS by surface plasmon resonance (SPR), Single Cycle Kinetics; conditions: for NRAS/KRAS (ratio of KD value with respect to GDP-bound NRAS wild-type protein to KD value with respect to KRAS): SPR KD ratio NRAS/KRAS, class symbols
GDP-bound NRAS wild-type protein, sequence (P01111 whole entry): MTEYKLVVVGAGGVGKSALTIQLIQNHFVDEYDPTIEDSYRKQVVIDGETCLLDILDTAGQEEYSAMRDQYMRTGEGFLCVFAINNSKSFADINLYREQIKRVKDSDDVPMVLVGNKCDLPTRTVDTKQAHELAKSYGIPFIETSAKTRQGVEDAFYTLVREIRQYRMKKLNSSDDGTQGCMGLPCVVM

[2] = target: GDP-bound HRAS wild-type protein (Homo sapiens, UniProt P01112); assay: Binding to HRAS by surface plasmon resonance (SPR), Single Cycle Kinetics; conditions: for HRAS/KRAS (ratio of KD value with respect to GDP-bound HRAS wild-type protein to KD value with respect to KRAS): SPR KD ratio HRAS/KRAS, class symbols
GDP-bound HRAS wild-type protein, sequence (P01112 whole entry): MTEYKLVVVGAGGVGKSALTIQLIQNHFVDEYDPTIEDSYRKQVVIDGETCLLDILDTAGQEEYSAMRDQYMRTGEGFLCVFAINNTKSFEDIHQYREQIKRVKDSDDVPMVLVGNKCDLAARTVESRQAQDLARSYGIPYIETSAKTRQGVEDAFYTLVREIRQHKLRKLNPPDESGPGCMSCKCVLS

[3] = SPR, GDP-bound NRAS wild-type protein vs GDP-bound KRAS wild-type protein
[4] = SPR, GDP-bound HRAS wild-type protein vs GDP-bound KRAS wild-type protein
[5] = SPR, GDP-bound NRAS wild-type protein vs GDP-bound KRAS wild-type protein, KD ratio class
[6] = SPR, GDP-bound HRAS wild-type protein vs GDP-bound KRAS wild-type protein, KD ratio class

CC[C@H](C)[C@@H]1NC(=O)[C@H](CC(C)C)N(C)C(=O)C[C@@H](C)N(C)C(=O)[C@H](C2CCCC2)N(C)C(=O)C2(CCC2)NC(=O)[C@@H]2CCCN2C(=O)[C@H](CCc2cc(F)c(C(F)(F)F)c(F)c2)NC(=O)CN(C)C(=O)[C@H](Cc2ccc(C(F)(F)F)cc2)N2CC/C=C\C[C@@H](C2=O)N(C)C(=O)CN(C)C1=O [PP1099]
NRAS/KRAS (ratio of KD value for NRAS to KD value for KRAS) [1, 3]: B (a compound having 3 or more and less than 10 is denoted as B) | HRAS/KRAS (ratio of KD value for HRAS to KD value for KRAS) [2, 4]: A (a compound having 10 or more and less than 20 is denoted as A)

CCOC[C@H]1C(=O)N[C@@H]([C@@H](C)CC)C(=O)N(C)CC(=O)N(C)[C@H]2C/C=C\CCN(C2=O)[C@@H](Cc2ccc3c(c2)CCC3(F)F)C(=O)N(C)CC(=O)N[C@@H](CCc2ccc(C(F)(F)F)c(OC)c2)C(=O)N2C[C@@H](C)C[C@H]2C(=O)NC2(CC(C)(C)C2)C(=O)N(C)[C@@H](C2CCCC2)C(=O)N(C)[C@H](C(=O)N(C)CC)CC(=O)N1C [PP2704]
NRAS/KRAS (ratio of KD value with respect to GDP-bound NRAS wild-type protein to KD value with respect to KRAS) [1]: B (a compound having 3 or more and less than 10 is denoted as B) | HRAS/KRAS (ratio of KD value with respect to GDP-bound HRAS wild-type protein to KD value with respect to KRAS) [2]: B (a compound having 3 or more and less than 10 is denoted as B)

CCO[C@@H]1C[C@H]2C(=O)NC3(CCC3)C(=O)N(C)[C@@H](C3CCCC3)C(=O)N(C)[C@H](C)CC(=O)N(C)[C@@H](CC3CC3)C(=O)N[C@@H]([C@@H](C)CC)C(=O)N(C)CC(=O)N(C)[C@H]3C/C=C\CCN(C3=O)[C@@H](Cc3ccc(F)cc3C)C(=O)N(C)CC(=O)N[C@@H](CCc3cc(F)c(C(F)(F)F)c(F)c3)C(=O)N2C1 [PP1489]
NRAS/KRAS (ratio of KD value for NRAS to KD value for KRAS) [1, 5]: B (a compound having 3 or more and less than 10 is denoted as B) | HRAS/KRAS (ratio of KD value for HRAS to KD value for KRAS) [2, 6]: B (a compound having 3 or more and less than 10 is denoted as B)

CCO[C@@H]1C[C@H]2C(=O)NC3(CCC3)C(=O)N(C)[C@@H](C3CCCC3)C(=O)N(C)[C@H](C(=O)N(C)C)CC(=O)N(C)[C@@H](CC3CCCC3)C(=O)N[C@@H]([C@@H](C)CC)C(=O)N(C)CC(=O)N(C)[C@H]3C/C=C\CCN(C3=O)[C@@H](Cc3ccc(C)cc3)C(=O)N(C)CC(=O)N[C@@H](CCc3ccc(CC)c(F)c3)C(=O)N2C1 [PP2686]
NRAS/KRAS (ratio of KD value with respect to GDP-bound NRAS wild-type protein to KD value with respect to KRAS) [1]: A (a compound having 10 or more and less than 20 is denoted as A) | HRAS/KRAS (ratio of KD value with respect to GDP-bound HRAS wild-type protein to KD value with respect to KRAS) [2]: A (a compound having 10 or more and less than 20 is denoted as A)

CC[C@H](C)[C@@H]1NC(=O)[C@H](CC)N(C)C(=O)C[C@@H](C(=O)N2CCOCC2)N(C)C(=O)[C@H](C2CCCC2)N(C)C(=O)C2(CCCC2)NC(=O)[C@@H]2CCCN2C(=O)[C@H](CCc2cc(F)c(C(F)(F)F)c(F)c2)NC(=O)CN(C)C(=O)[C@H](Cc2ccc(C(F)(F)F)cc2)N2CCCC[C@@H](C2=O)N(C)C(=O)CN(C)C1=O [PP0550]
NRAS/KRAS (ratio of KD value with respect to NRAS to KD value with respect to KRAS) [1, 3]: B (a compound having 3 or more and less than 10 is denoted as B) | HRAS/KRAS (ratio of KD value with respect to HRAS to KD value with respect to KRAS) [2, 4]: B (a compound having 3 or more and less than 10 is denoted as B)

CCO[C@@H]1C[C@H]2C(=O)NC3(CCC3)C(=O)N(C)[C@@H](C3CCCC3)C(=O)N(C)[C@H](C(=O)N3CCOCC3)CC(=O)N(C)[C@@H](CC(C)C)C(=O)N[C@@H]([C@@H](C)CC)C(=O)N(C)CC(=O)N(C)[C@H]3CC=C(C)CN(C3=O)[C@@H](Cc3ccc(C(F)(F)F)cc3)C(=O)N(C)CC(=O)N[C@@H](CCc3cc(F)c(C(F)(F)F)c(F)c3)C(=O)N2C1 [PP0826]
NRAS/KRAS (ratio of KD value for NRAS to KD value for KRAS) [1, 3]: C (A compound having a KD ratio of 0.1 or more and less than 3 is denoted as C) | HRAS/KRAS (ratio of KD value for HRAS to KD value for KRAS) [2, 4]: B (a compound having 3 or more and less than 10 is denoted as B)

CC[C@H](C)[C@@H]1NC(=O)[C@H](CC2CCCC2)N(C)C(=O)C[C@@H](C(=O)N(C)C)N(C)C(=O)[C@H](C2CCCC2)N(C)C(=O)C2(CCC2)NC(=O)[C@@H]2C[C@@H](C(F)(F)F)CN2C(=O)[C@H](CCc2cc(F)c(C(F)(F)F)c(F)c2)NC(=O)CN(C)C(=O)[C@H](Cc2ccc(F)cc2)N2CC/C=C\C[C@@H](C2=O)N(C)C(=O)CN(C)C1=O [PP1508]
NRAS/KRAS (ratio of KD value for NRAS to KD value for KRAS) [1, 5]: A (a compound having 10 or more and less than 20 is denoted as A) | HRAS/KRAS (ratio of KD value for HRAS to KD value for KRAS) [2, 6]: A (a compound having 10 or more and less than 20 is denoted as A)

CC[C@H](C)[C@@H]1NC(=O)[C@H](CC(C)C)N(C)C(=O)C[C@@H](C(=O)N2CCOCC2)N(C)C(=O)[C@H](C2CCCC2)N(C)C(=O)C2(CCCC2)NC(=O)[C@@H]2CCCN2C(=O)[C@H](CCc2ccc(C(F)(F)F)c(Cl)c2)NC(=O)CN(C)C(=O)[C@H](Cc2ccc(C(F)(F)F)cc2)N2CCCCC[C@@H](C2=O)N(C)C(=O)CN(C)C1=O (stereo in doubt) [PP0319]
NRAS/KRAS (ratio of KD value for NRAS to KD value for KRAS) [1, 3]: B (a compound having 3 or more and less than 10 is denoted as B) | HRAS/KRAS (ratio of KD value for HRAS to KD value for KRAS) [2, 4]: B (a compound having 3 or more and less than 10 is denoted as B)

CCC(CC)[C@H]1C(=O)N(C)[C@H](C(=O)N(C)C)CC(=O)N(C)[C@@H](COC)C(=O)N[C@@H]([C@@H](C)CC)C(=O)N(C)CC(=O)N(C)[C@H]2C/C=C\CCN(C2=O)[C@@H](Cc2ccc(C)cc2)C(=O)N(C)CC(=O)N[C@@H](CCc2ccc(C(F)(F)F)c(OC)c2)C(=O)N2CCCCC[C@H]2C(=O)NC2(CC(C)(C)C2)C(=O)N1C [PP2970]
NRAS/KRAS (ratio of KD value with respect to GDP-bound NRAS wild-type protein to KD value with respect to KRAS) [1]: A (a compound having 10 or more and less than 20 is denoted as A) | HRAS/KRAS (ratio of KD value with respect to GDP-bound HRAS wild-type protein to KD value with respect to KRAS) [2]: A (a compound having 10 or more and less than 20 is denoted as A)

CCC[C@H]1C(=O)N[C@@H]([C@@H](C)CC)C(=O)N(C2CC2)CC(=O)N(C)[C@H]2C/C=C\CCN(C2=O)[C@@H](Cc2ccc(C)cc2)C(=O)N(C)CC(=O)N[C@@H](CCc2ccc(C3CC3)c(C)c2)C(=O)N2C[C@H](OCC)C[C@H]2C(=O)NC2(CC(C)(C)C2)C(=O)N(C)[C@@H](C2CCCC2)C(=O)N(C)[C@H](C(=O)N(C)C)CC(=O)N1C [PP2886]
NRAS/KRAS (ratio of KD value with respect to GDP-bound NRAS wild-type protein to KD value with respect to KRAS) [1]: A (a compound having 10 or more and less than 20 is denoted as A) | HRAS/KRAS (ratio of KD value with respect to GDP-bound HRAS wild-type protein to KD value with respect to KRAS) [2]: A (a compound having 10 or more and less than 20 is denoted as A)

CCOC[C@H]1C(=O)N[C@@H]([C@@H](C)CC)C(=O)N(C)CC(=O)N(C)[C@H]2C/C=C\CCN(C2=O)[C@@H](Cc2ccc(C)cc2F)C(=O)N(C)CC(=O)N[C@@H](CCc2ccc(C(F)(F)F)c(OC)c2)C(=O)N2C[C@@H](C)C[C@H]2C(=O)NC2(CC(C)(C)C2)C(=O)N(C)[C@@H](C2CCCC2)C(=O)N(C)[C@H](C(=O)N(C)CC)CC(=O)N1C [PP2697]
NRAS/KRAS (ratio of KD value with respect to GDP-bound NRAS wild-type protein to KD value with respect to KRAS) [1]: A (a compound having 10 or more and less than 20 is denoted as A) | HRAS/KRAS (ratio of KD value with respect to GDP-bound HRAS wild-type protein to KD value with respect to KRAS) [2]: A (a compound having 10 or more and less than 20 is denoted as A)

CCC[C@H]1C(=O)N[C@@H]([C@@H](C)CC)C(=O)N(C)CC(=O)N(C)[C@H]2C/C=C\CCN(C2=O)[C@@H](Cc2ccc(C(F)(F)F)cc2)C(=O)N(C)CC(=O)N[C@@H](CCc2ccc(CC)c(OC)c2)C(=O)N2C[C@H](OCC)C[C@H]2C(=O)NC2(CC(C)(C)C2)C(=O)N(C)[C@@H](C2CCCC2)C(=O)N(C)[C@H](C(=O)N(C)C)CC(=O)N1C [PP2869]
NRAS/KRAS (ratio of KD value with respect to GDP-bound NRAS wild-type protein to KD value with respect to KRAS) [1]: A (a compound having 10 or more and less than 20 is denoted as A) | HRAS/KRAS (ratio of KD value with respect to GDP-bound HRAS wild-type protein to KD value with respect to KRAS) [2]: A (a compound having 10 or more and less than 20 is denoted as A)
